This passage reports Kd and Relative binding affinity results from ChEMBL document CHEMBL1122719, “Steroids. 2. Synthesis of C-18 functionalized steroids via the Smith-Hughes route” (J Med Chem, 1984).

Structures are written as SMILES.

The first experiment deals with Estrogen receptor (Rattus norvegicus, UniProt P06211+Q62986). As to the kind of experiment: Equilibrium dissociation constant for rat uterine estrogen receptor binding [3H]estradiol. The format is protein assay.
By Kd is commonly meant the free concentration of one partner at which half of the binding sites on the other are occupied at equilibrium, for simple one-to-one binding. `C#C[C@]1(O)CC[C@H]2[C@@H]3CCC4=CC(=O)CC[C@@H]4[C@H]3CC[C@@]21C` [NORETHINDRONE] yielded a Kd of 0.00063 µM. For the compound `OC[C@@]12CCC[C@H]1[C@@H]1CCc3cc(O)ccc3[C@H]1CC2`, the dissociation constant Kd was 0.31 µM.

A further experiment addresses T1, Progesterone receptor (Gallus gallus) (UniProt P07812).
T1 sequence (whole entry): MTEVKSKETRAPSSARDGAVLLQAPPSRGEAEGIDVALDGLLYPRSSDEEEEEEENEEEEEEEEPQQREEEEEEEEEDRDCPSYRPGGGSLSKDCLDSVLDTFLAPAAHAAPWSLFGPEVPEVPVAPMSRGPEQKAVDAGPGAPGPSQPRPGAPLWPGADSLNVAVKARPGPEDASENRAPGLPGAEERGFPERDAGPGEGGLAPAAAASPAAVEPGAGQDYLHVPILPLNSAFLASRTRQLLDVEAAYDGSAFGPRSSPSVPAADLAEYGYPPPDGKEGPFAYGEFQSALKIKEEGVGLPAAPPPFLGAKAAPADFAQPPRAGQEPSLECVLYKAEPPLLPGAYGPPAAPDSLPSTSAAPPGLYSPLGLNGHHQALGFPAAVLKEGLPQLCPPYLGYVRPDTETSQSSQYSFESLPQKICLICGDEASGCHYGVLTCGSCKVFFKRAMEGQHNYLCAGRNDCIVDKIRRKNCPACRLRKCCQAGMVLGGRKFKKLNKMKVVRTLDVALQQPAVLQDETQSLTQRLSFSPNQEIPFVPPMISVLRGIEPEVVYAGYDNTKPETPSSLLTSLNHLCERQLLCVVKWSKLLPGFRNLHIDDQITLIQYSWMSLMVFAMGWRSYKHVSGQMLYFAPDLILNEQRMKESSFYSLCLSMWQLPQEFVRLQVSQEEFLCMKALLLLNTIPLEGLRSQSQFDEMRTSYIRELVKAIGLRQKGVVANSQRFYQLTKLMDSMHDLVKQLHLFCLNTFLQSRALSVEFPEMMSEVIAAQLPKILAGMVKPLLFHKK
The experiment can be described thus: In vitro displacement of progesterone from oviduct progesterone receptor relative to progesterone.
The compound `CC(=O)OC(C(C)=O)[C@@]12CCC[C@H]1[C@@H]1CCC3=CC(=O)CC[C@@H]3[C@H]1CC2` (stereo partly drawn) yielded a Relative binding affinity of 0.1%. `C#C[C@@H](O)C12CCCC1C1CCC3=CC(=O)CC[C@@H]3C1CC2` (stereo partly drawn) showed a Relative binding affinity of 0.6%. The same measure, in the same setting: under `CC(=O)[C@H]1CC[C@H]2[C@@H]3CCC4=CC(=O)CC[C@]4(C)[C@H]3CC[C@]12C` stands 100%; under `C#C[C@@H](O)C12CCCC1C1CCC3=CC(=O)CC[C@@H]3C1CC2.C#C[C@H](O)C12CCCC1C1CCC3=CC(=O)CC[C@@H]3C1CC2` (stereo partly drawn), 3.1%. The compound `C#C[C@]1(O)CC[C@H]2[C@@H]3CCC4=CC(=O)CC[C@@H]4[C@H]3CC[C@@]21C` [NORETHINDRONE] came in with a Relative binding affinity of 350%. On the same count and under the same terms, under `CC(=O)C[C@@]12CCC[C@H]1[C@@H]1CCC3=CC(=O)CC[C@@H]3[C@H]1CC2` stands 2%.
